Assay results reported in the NIST ThermoML archive (doi:10.1016/j.jct.2006.09.008).
± gives the expanded uncertainty stated by the source.

Assay: molar heat capacity at constant pressure; mn = molality of the nth substance listed, in mol/kg
Conditions: 350 kPa, Liquid

O=[N+]([O-])[O-].O=[N+]([O-])[O-].[Mn+2] [manganese nitrate] + O
molar heat capacity at constant pressure [J/K/mol]
Conditions	m1 = 0.0132	m1 = 0.0248	m1 = 0.0503	m1 = 0.0825	m1 = 0.0836	m1 = 0.1542	m1 = 0.3085	m1 = 0.5132
278.15 K	75.63 ± 0.3	75.56 ± 0.3	75.42 ± 0.3	75.25 ± 0.3	75.25 ± 0.3	74.9 ± 0.3	74.27 ± 0.3	73.62 ± 0.29
283.15 K	75.47 ± 0.3	75.41 ± 0.3	75.28 ± 0.3	75.14 ± 0.3	75.13 ± 0.3	74.83 ± 0.3	74.27 ± 0.3	73.71 ± 0.29
288.15 K	75.36 ± 0.3	75.31 ± 0.3	75.19 ± 0.3	75.07 ± 0.3	75.06 ± 0.3	74.79 ± 0.3	74.3 ± 0.3	73.8 ± 0.29
293.15 K	75.29 ± 0.3	75.24 ± 0.3	75.14 ± 0.3	75.02 ± 0.3	75.02 ± 0.3	74.78 ± 0.3	74.34 ± 0.3	73.88 ± 0.3
298.15 K	75.24 ± 0.3	75.2 ± 0.3	75.1 ± 0.3	75 ± 0.3	75 ± 0.3	74.78 ± 0.3	74.38 ± 0.3	73.96 ± 0.3
303.15 K	75.21 ± 0.3	75.17 ± 0.3	75.08 ± 0.3	74.99 ± 0.3	74.99 ± 0.3	74.78 ± 0.3	74.42 ± 0.3	74.04 ± 0.3
308.15 K	75.2 ± 0.3	75.16 ± 0.3	75.08 ± 0.3	74.99 ± 0.3	74.99 ± 0.3	74.8 ± 0.3	74.46 ± 0.3	74.11 ± 0.3
313.15 K	75.2 ± 0.3	75.16 ± 0.3	75.09 ± 0.3	75.01 ± 0.3	75 ± 0.3	74.83 ± 0.3	74.51 ± 0.3	74.18 ± 0.3
318.15 K	75.21 ± 0.3	75.18 ± 0.3	75.11 ± 0.3	75.03 ± 0.3	75.03 ± 0.3	74.86 ± 0.3	74.56 ± 0.3	74.25 ± 0.3
323.15 K	75.24 ± 0.3	75.2 ± 0.3	75.14 ± 0.3	75.06 ± 0.3	75.06 ± 0.3	74.89 ± 0.3	74.61 ± 0.3	74.32 ± 0.3
328.15 K	75.27 ± 0.3	75.24 ± 0.3	75.17 ± 0.3	75.1 ± 0.3	75.09 ± 0.3	74.94 ± 0.3	74.66 ± 0.3	74.39 ± 0.3
333.15 K	75.31 ± 0.3	75.28 ± 0.3	75.21 ± 0.3	75.14 ± 0.3	75.14 ± 0.3	74.99 ± 0.3	74.72 ± 0.3	74.45 ± 0.3
338.15 K	75.36 ± 0.3	75.33 ± 0.3	75.26 ± 0.3	75.19 ± 0.3	75.19 ± 0.3	75.04 ± 0.3	74.78 ± 0.3	74.52 ± 0.3
343.15 K	75.42 ± 0.3	75.39 ± 0.3	75.32 ± 0.3	75.25 ± 0.3	75.25 ± 0.3	75.1 ± 0.3	74.84 ± 0.3	74.59 ± 0.3
348.15 K	75.48 ± 0.3	75.45 ± 0.3	75.38 ± 0.3	75.31 ± 0.3	75.31 ± 0.3	75.16 ± 0.3	74.91 ± 0.3	74.66 ± 0.3
353.15 K	75.55 ± 0.3	75.52 ± 0.3	75.46 ± 0.3	75.38 ± 0.3	75.38 ± 0.3	75.23 ± 0.3	74.98 ± 0.3	74.73 ± 0.3
358.15 K	75.63 ± 0.3	75.6 ± 0.3	75.53 ± 0.3	75.46 ± 0.3	75.46 ± 0.3	75.31 ± 0.3	75.06 ± 0.3	74.81 ± 0.3
363.15 K	75.72 ± 0.3	75.68 ± 0.3	75.62 ± 0.3	75.54 ± 0.3	75.54 ± 0.3	75.39 ± 0.3	75.14 ± 0.3	74.89 ± 0.3
368.15 K	75.81 ± 0.3	75.78 ± 0.3	75.71 ± 0.3	75.63 ± 0.3	75.63 ± 0.3	75.48 ± 0.3	75.22 ± 0.3	74.97 ± 0.3
373.15 K	75.91 ± 0.3	75.88 ± 0.3	75.81 ± 0.3	75.73 ± 0.3	75.73 ± 0.3	75.57 ± 0.3	75.31 ± 0.3	75.06 ± 0.3
378.15 K	76.02 ± 0.3	75.99 ± 0.3	75.91 ± 0.3	75.83 ± 0.3	75.83 ± 0.3	75.67 ± 0.3	75.41 ± 0.3	75.15 ± 0.3
383.15 K	76.14 ± 0.31	76.1 ± 0.3	76.03 ± 0.3	75.94 ± 0.3	75.94 ± 0.3	75.78 ± 0.3	75.51 ± 0.3	75.25 ± 0.3
388.15 K	76.27 ± 0.31	76.23 ± 0.31	76.15 ± 0.31	76.07 ± 0.3	76.07 ± 0.3	75.89 ± 0.3	75.62 ± 0.3	75.36 ± 0.3
393.15 K	76.41 ± 0.31	76.37 ± 0.31	76.29 ± 0.31	76.2 ± 0.3	76.2 ± 0.3	76.02 ± 0.3	75.74 ± 0.3	75.47 ± 0.3
